Results from US8986733B2, “Materials and methods for nerve repair” (University of Florida Research Foundation, Inc., priority 2001, dated 2015).

What was measured:
chick DRG neurons = assay: Cryoculture assay using human nerve segments; type: cell-based; settings: DRG neurons 24 h on treated human nerve sections
Experimental: Human nerves were treated with chondroitinase and then assayed for neurite-promoting activity. Dissociated chick DRG neurons were grown on the sections for 24 h and neurite lengths were scored. Results are expressed as means (−SEM). Statistical significance (P<0.001) comparing vehicle-treated and chondroitinase-treated conditions was found using Student's t test.
Cryoculture bioassay. Cryoculture is a neurite outgrowth assay in which neurons are cultured directly on fresh/frozen nerve sections and was performed as described previously (Ferguson T A et al. [2000] Mol Cell Neurosci, 16:157-167). Briefly, chondroitinase- and vehicle-treated nerve segments were sectioned at 20 μm, mounted on sterile, aminopropyltriethoxysilane (APTS)-coated coverslips and stored at −20° C. until used. Where indicated, sections were treated with chondroitinase ABC (0.1 unit/ml) or vehicle (50 mM Tris-HCl, pH 8.0), containing 50 mM NaCl) for 2 h at 37° C. […] Neurite lengths were measured directly using IMAGE-PRO PLUS software (MEDIA CYBERNETICS, Silver Springs, Md.). At least 250 neurons with neurites greater than one cell body (˜15 μm) were scored for each condition in each experiment. […]

rat sciatic nerve [1] = assay: Bilateral sciatic nerve crush injury (axonotmesis), GAP-43 axon scoring; type: in vivo; settings: 2 days after injury; for axonal regeneration after nerve crush injury (GAP-43 immunoreactivity) vs vehicle: 1 U injected
Experimental: (§1) Surgical procedures for nerve transection and nerve crush experiments. All surgical procedures were performed according to Institutional Animal Care and Use Committee (IACUC) approved protocols. Young adult SPRAGUE DAWLEY rats (HARLAN Indianapolis, Ind.) were deeply anesthetized with xylazine (15 mg/kg, i.m.) followed by ketamine-HCl (110 mg/kg, i.p.). Six animals received bilateral nerve crush injuries. Sciatic nerves were exposed and then crushed with firm pressure for thirty seconds with a DUMONT #5 forceps at a site 4 mm distal to the tendon of the internal obdurator. The crush site was marked with an epineurial suture. In a separate set of experiments, eight rats received bilateral sciatic nerve transection injuries using serrated scissors. The proximal and distal stumps were […] by epineurial neurorrhaphy using 9-0 ETHILON sutures. Fibrin glue (fibrinogen and thrombin) was then applied to stabilize the union. In both injury models, the right sciatic nerves were injected 2-mm distal to the injury with chondroitinase ABC (1 U in 2 μl) (high-purity, protease-free; SIGMA CHEMICAL CO., St. Louis, […].). Left sciatic nerves (with the same injury as the right side) were injected with vehicle alone (0.1% bovine serum albumin in PBS). Muscle incisions were sutured and the skin closed with metal clips. After recovery from the anesthetic, animals were returned to standard housing. Two days (for crush injury) and four days (for transection injury) after surgery, nerves were removed under anesthesia and fixed as described below. One of the eight animals receiving nerve transection and repair was excluded because loss of continuity in one nerve occurred during convalescence.
The hypothesis that chondroitinase treatment improves axonal growth through the site of nerve crush injury was tested. Bilateral axonotmesis was achieved by severely crushing the sciatic nerves while maintaining the continuity of the nerve sheaths. […] Regenerating axons were labeled by GAP-43 immunofluorescence and scored by digital image analysis. […]

rat sciatic nerve [2] = assay: Bilateral sciatic nerve transection (neurotmesis) and neurorrhaphic repair, GAP-43 axon scoring; type: in vivo; settings: for axon regeneration / ingress into the distal segment vs vehicle-treated controls: 4 days after transection and repair
Experimental: as §1
The hypothesis that chondroitinase treatment improves axonal growth through the site of nerve coaptation was tested. Bilateral neurotmesis was achieved by a scissor cut of the sciatic nerves which were then repaired by epineurial suture and fibrin glue. One nerve was injected with chondroitinase ABC and the contralateral nerve received vehicle alone. Because of the latency of regeneration after nerve transection, axonal growth across the coaptation was examined four days after injury. In control nerves, the ingress of axons occurred mainly in patches and was limited to discrete subsections of the distal nerve; otherwise only a few axons were found scattered throughout the remaining nerve cross-section, as shown in FIG. 14A. The number of axons extending farther into the distal (after 4 days) rapidly diminished and approached zero within 3 mm from the coaptation. In contrast, axon ingress into chondroitinase-treated nerves was more robust and widespread throughout the entire nerve cross-section. In 7/7 animals, the number of axons that entered the distal nerve was greater in the chondroitinase-treated nerve than in the control nerve. […] It was clear that axon growth in all portions of the distal nerve was strictly linear and aligned with the longitudinal axis of the nerve.

rat sciatic nerve [3] = assay: Human-to-rat acellular nerve xenograft model, GAP-43 axon scoring; type: in vivo; settings: 8-day acellular human nerve xenografts in rat
Excerpt: Human nerve fascicles (of similar diameter to the rat sciatic nerve) were grafted into a gap made in the rat sciatic nerve. Serial sections of the 8-day interpositional nerve xenografts were scored for GAP-43-labeled axonal profiles by digital image analysis. Data represent the means (−SEM) of 2 vehicle-treated and 2 chondroitinase-treated grafts assessed at the specified distances into the graft (proximal to distal).
In the following experiments, the hypothesis that chondroitinase treatment improves nerve regeneration through acellular human nerve grafts in a rat xenograft model was tested. Subunits (individual fascicles) taken from human nerves were treated en bloc with vehicle or chondroitinase ABC. Ten-mm interpositional nerve grafts were joined to the rat host sciatic nerve by epineurial neurorrhaphy reinforced with fibrin glue. Each of 2 host rats received bilateral grafts, one vehicle-treated and one chondroitinase-treated graft. Regeneration was initially examined after 8 days. Axonal growth was assessed at specified spatial intervals within the graft by scoring GAP-43-immunopositive profiles in transverse sections.

With chondroitinase ABC the “growth-promoting properties of human nerves (neurite length)” value (chick DRG neurons) was “increased”, the “latency or rate of axonal regeneration after crush” value (rat sciatic nerve [1]) was “no indication that the latency or rate of axonal regeneration was altered” and the “axonal regeneration after nerve crush injury (GAP-43 immunoreactivity) vs vehicle” value (rat sciatic nerve [1]) was “no significant difference”. The “axonal regeneration after nerve crush injury (GAP-43 immunoreactivity) vs vehicle” value (rat sciatic nerve [1]; listed as chondroitinase) was “not significantly effected”, the “animals in which number of axons entering distal nerve was greater than in control nerve” value (rat sciatic nerve [2]; 4 days after injury) was 7/7 and the “increase in axon score immediately distal to coaptation in 3/7 animals” value (rat sciatic nerve [2]; 4 days after injury, 3/7 animals) was “greater than 3.5 fold”. The “score of axons immediately distal to the coaptation vs control” value (rat sciatic nerve [2]; 4 days after injury, average) was “two-fold greater”, the “axon regeneration / ingress into the distal segment vs vehicle-treated controls” value (rat sciatic nerve [2]) was “significantly greater” and the “axon regeneration / ingress into the distal segment vs vehicle-treated controls” value (rat sciatic nerve [2]; listed as chondroitinase) was “increased several-fold”. For the same substance, the “average number of axons (GAP-43-immunopositive profiles) entering grafts vs control grafts” value (rat sciatic nerve [3]) was “more than three-fold greater”.
